# Assay results published in patent publication US20210113501A1, “METHOD OF ADMINISTERING BETA-HYDROXY-BETA-METHYLBUTYRATE (HMB)” (Metabolic Technologies, Inc., priority 2009, published 2021).
# Test: Study 2 blood chemistry
# Format: in vivo, human
# Settings: for Aspartate Aminotransferase / Gamma-glutamyl: in U/L (unit assumed); for A:G Ratio % Change / Alanine Aminotransferase % Change / Albumin % Change / Alkaline Phosphatase % Change / Aspartate Aminotransferase % Change / Blood Urea Nitrogen % Change / CO2 % Change / Chloride % Change / Cholesterol Ratio % Change / Creatinine % Change / Direct Bilirubin % Change / Gamma-glutamyl % Change / Globulin % Change / Glucose % Change / HDL % Change / Iron % Change / Iron Binding Capacity % Change / Iron Saturation % Change / LDL % Change / Lactate Dehydrogenase % Change / Phosphorus % Change / Potassium % Change / Protein % Change / Sodium % Change / Total Bilirubin % Change / Total Cholesterol % Change / Triglycerides % Change / UIBC % Change / Uric Acid % Change: Before to After
# Method: Study 2 design. Study 2 was conducted similar to study 1 with the following modifications. In study 2, plasma levels of HMB were measured for 1440 min (24 h) and total urine collection was also performed for measurement of urinary HMB excretion during this period. After the 180 min blood sample, the subjects were allowed to leave the laboratory and were instructed to return to the laboratory for additional blood samples at 360, 720, and 1440 min after the ingestion of the supplement. As in study 1, each subject took each of the treatments with at least a one week washout period between treatments. Samples were again stored frozen at −70° C. for analysis of plasma and urinary HMB concentrations. Pre-ingestion, 180 min and 1440 min blood samples were again assayed for the same measurements already for study 1. Subjects were provided with a standardized lunch after the 180 min blood sampling and instructed to eat this at approximately 240 min post ingestion. Following the 720 min blood sample, subjects were instructed to eat a normal evening meal before 10 pm. Subjects reported back to the laboratory the following morning for the fasted 1440 min blood sample. A urine collection container was provided and subjects collected all urine produced during the experimental 24 h experimental period. The urine was stored refrigerated when not being collected. Urine volumes were measured and samples of the total urine collection were taken and stored frozen at −70° C. until analyzed for HMB.
# The data were analyzed using a crossover design with Proc GLM in SAS. (45) For the timed sampling of plasma HMB a repeated measures polynomial model was used. The model included subject, order, and treatment main effects and time by treatment interaction where appropriate. For other parameters Proc GLM was also used with subject, order, and treatment main effects and the p values are reported for the treatment main effect. Statistical significance was determined for p<0.05 and a trend was determined for 0.05<p<0.10.
structure (smiles),measurement,setting,value
"CC(C)(O)CC(=O)[O-].CC(C)(O)CC(=O)[O-].[Ca+2] [CaHMB, calcium β-hydroxy-β-methylbutryate, reference compound]",A:G Ratio,After (24 h),1.8 ± 0.1
same,Alanine Aminotransferase,After (24 h),14.9 ± 2.2 IU/L
same,Albumin,After (24 h),4.2 ± 0.1 g/dL
same,Alkaline Phosphatase,After (24 h),66.8 ± 6.9 IU/L
same,Blood Urea Nitrogen,After (24 h),13.4 ± 1.0 mg/dL
same,CO2,After (24 h),27.3 ± 0.6 mEq/L
same,Chloride,After (24 h),103.0 ± 0.5 mEq/L
same,Cholesterol Ratio,After (24 h),3.1 ± 0.2
same,Creatinine,After (24 h),1.0 ± 0.1 mg/dL
same,Direct Bilirubin,After (24 h),0.1 ± 0.04 mg/dL
same,Globulin,After (24 h),2.4 ± 0.1 g/dL
same,Glucose,After (24 h),80.3 ± 2.4 mg/dL
same,HDL,After (24 h),54.0 ± 3.5 mg/dL
same,Iron,After (24 h),59.9 ± 12.2 µg/dL
same,Iron Binding Capacity,After (24 h),377.5 ± 30.3 µg/dL
same,Iron Saturation,After (24 h),17.5 ± 4.2%
same,LDL,After (24 h),88.6 ± 5.9 mg/dL
same,Lactate Dehydrogenase,After (24 h),142.4 ± 10.5 IU/L
same,Phosphorus,After (24 h),4.4 ± 0.1 mg/dL
same,Potassium,After (24 h),4.7 ± 0.1 mEq/L
same,Protein,After (24 h),6.5 ± 0.2 g/dL
same,Sodium,After (24 h),141.4 ± 0.5 mEq/L
same,Total Bilirubin,After (24 h),0.5 ± 0.2 mg/dL
same,Total Cholesterol,After (24 h),162.9 ± 7.1 mg/dL
same,Triglycerides,After (24 h),106.9 ± 17.6 mg/dL
same,UIBC,After (24 h),317.6 ± 38.3 µg/dL
same,Uric Acid,After (24 h),4.2 ± 0.5 mg/dL
same,Aspartate Aminotransferase,After (24 h),20.0 ± 1.1
same,Gamma-glutamyl,After (24 h),14.3 ± 1.4
same,A:G Ratio,Before,1.9 ± 0.1
same,Alanine Aminotransferase,Before,15.4 ± 1.8 IU/L
same,Albumin,Before,4.1 ± 0.1 g/dL
same,Alkaline Phosphatase,Before,65.5 ± 7.3 IU/L
same,Blood Urea Nitrogen,Before,14.8 ± 1.4 mg/dL
same,CO2,Before,24.9 ± 0.6 mEq/L
same,Chloride,Before,102.4 ± 0.5 mEq/L
same,Cholesterol Ratio,Before,3.1 ± 0.2
same,Creatinine,Before,1.0 ± 0.1 mg/dL
same,Direct Bilirubin,Before,0.2 ± 0.1 mg/dL
same,Globulin,Before,2.2 ± 0.1 g/dL
same,Glucose,Before,70.8 ± 0.8 mg/dL
same,HDL,Before,52.3 ± 2.7 mg/dL
same,Iron,Before,99.0 ± 20.0 µg/dL
same,Iron Binding Capacity,Before,371.8 ± 28.6 µg/dL
same,Iron Saturation,Before,28.4 ± 5.8%
same,LDL,Before,88.6 ± 7.2 mg/dL
same,Lactate Dehydrogenase,Before,161.8 ± 12.6 IU/L
same,Phosphorus,Before,4.0 ± 0.1 mg/dL
same,Potassium,Before,4.1 ± 0.1 mEq/L
same,Protein,Before,6.4 ± 0.2 g/dL
same,Sodium,Before,139.5 ± 0.8 mEq/L
same,Total Bilirubin,Before,0.6 ± 0.1 mg/dL
same,Total Cholesterol,Before,160.4 ± 8.0 mg/dL
same,Triglycerides,Before,97.4 ± 12.5 mg/dL
same,UIBC,Before,272.8 ± 39.5 µg/dL
same,Uric Acid,Before,4.8 ± 0.3 mg/dL
same,A:G Ratio % Change,,−3.4%
same,Alanine Aminotransferase % Change,,−3.3%
same,Albumin % Change,,0.6%
same,Alkaline Phosphatase % Change,,1.9%
same,Aspartate Aminotransferase % Change,,−11.6%
same,Blood Urea Nitrogen % Change,,−9.3%
same,CO2 % Change,,9.5%
same,Chloride % Change,,0.6%
same,Cholesterol Ratio % Change,,−0.8%
same,Creatinine % Change,,−1.5%
same,Direct Bilirubin % Change,,−37.4%
same,Gamma-glutamyl % Change,,1.8%
same,Globulin % Change,,6.7%
same,Glucose % Change,,13.4%
same,HDL % Change,,3.3%
same,Iron % Change,,−39.5%
same,Iron Binding Capacity % Change,,1.5%
same,Iron Saturation % Change,,−38.3%
same,LDL % Change,,0.0%
same,Lactate Dehydrogenase % Change,,−12.0%
same,Phosphorus % Change,,10.6%
same,Potassium % Change,,14.8%
same,Protein % Change,,2.8%
same,Sodium % Change,,1.3%
same,Total Bilirubin % Change,,−17.8%
same,Total Cholesterol % Change,,1.6%
same,Triglycerides % Change,,9.8%
same,UIBC % Change,,16.5%
same,Uric Acid % Change,,−12.0%
same,Aspartate Aminotransferase,Before,22.6 ± 1.4
same,Gamma-glutamyl,Before,14.0 ± 1.9
"CC(C)(O)CC(=O)O [HMB-Acid Gel Swallow, 3-hydroxy-3-methylbutyric acid]",A:G Ratio,After (24 h),1.8 ± 0.1
same,Alanine Aminotransferase,After (24 h),16.4 ± 1.7 IU/L
same,Albumin,After (24 h),4.3 ± 0.1 g/dL
same,Alkaline Phosphatase,After (24 h),74.1 ± 7.6 IU/L
same,Blood Urea Nitrogen,After (24 h),13.9 ± 1.4 mg/dL
same,CO2,After (24 h),27.8 ± 0.9 mEq/L
same,Chloride,After (24 h),102.8 ± 0.7 mEq/L
same,Cholesterol Ratio,After (24 h),3.2 ± 0.2
same,Creatinine,After (24 h),1.0 ± 0.1 mg/dL
same,Direct Bilirubin,After (24 h),0.1 ± 0.04 mg/dL
same,Globulin,After (24 h),2.4 ± 0.2 g/dL
same,Glucose,After (24 h),79.9 ± 1.9 mg/dL
same,HDL,After (24 h),56.4 ± 2.9 mg/dL
same,Iron,After (24 h),53.8 ± 10.8 µg/dL
same,Iron Binding Capacity,After (24 h),395.1 ± 34.7 µg/dL
same,Iron Saturation,After (24 h),16.9 ± 4.6%
same,LDL,After (24 h),96.1 ± 8.1 mg/dL
same,Lactate Dehydrogenase,After (24 h),136.6 ± 11.6 IU/L
same,Phosphorus,After (24 h),4.5 ± 0.2 mg/dL
same,Potassium,After (24 h),4.7 ± 0.2 mEq/L
same,Protein,After (24 h),6.7 ± 0.2 g/dL
same,Sodium,After (24 h),141.5 ± 0.9 mEq/L
same,Total Bilirubin,After (24 h),0.5 ± 0.1 mg/dL
same,Total Cholesterol,After (24 h),176.9 ± 11.8 mg/dL
same,Triglycerides,After (24 h),121.4 ± 22.7 mg/dL
same,UIBC,After (24 h),335.1 ± 42.1 µg/dL
same,Uric Acid,After (24 h),4.8 ± 0.3 mg/dL
same,Aspartate Aminotransferase,After (24 h),21.3 ± 0.7
same,Gamma-glutamyl,After (24 h),14.0 ± 1.0
same,A:G Ratio,Before,1.9 ± 0.2
same,Alanine Aminotransferase,Before,16.4 ± 1.6 IU/L
same,Albumin,Before,4.1 ± 0.1 g/dL
same,Alkaline Phosphatase,Before,64.8 ± 7.3 IU/L
same,Blood Urea Nitrogen,Before,14.5 ± 1.4 mg/dL
same,CO2,Before,24.8 ± 1.0 mEq/L
same,Chloride,Before,103.1 ± 0.8 mEq/L
same,Cholesterol Ratio,Before,3.2 ± 0.2
same,Creatinine,Before,1.0 ± 0.1 mg/dL
same,Direct Bilirubin,Before,0.1 ± 0.03 mg/dL
same,Globulin,Before,2.3 ± 0.2 g/dL
same,Glucose,Before,74.1 ± 2.0 mg/dL
same,HDL,Before,51.4 ± 2.8 mg/dL
same,Iron,Before,68.0 ± 13.4 µg/dL
same,Iron Binding Capacity,Before,378.6 ± 32.1 µg/dL
same,Iron Saturation,Before,20.3 ± 5.0%
same,LDL,Before,90.8 ± 7.0 mg/dL
same,Lactate Dehydrogenase,Before,155.9 ± 13.9 IU/L
same,Phosphorus,Before,4.2 ± 0.2 mg/dL
same,Potassium,Before,4.1 ± 0.1 mEq/L
same,Protein,Before,6.4 ± 0.1 g/dL
same,Sodium,Before,139.9 ± 0.7 mEq/L
same,Total Bilirubin,Before,0.5 ± 0.1 mg/dL
same,Total Cholesterol,Before,164.6 ± 10.5 mg/dL
same,Triglycerides,Before,112.6 ± 18.4 mg/dL
same,UIBC,Before,310.6 ± 42.4 µg/dL
same,Uric Acid,Before,4.7 ± 0.1 mg/dL
same,A:G Ratio % Change,,−2.6%
same,Alanine Aminotransferase % Change,,0.0%
same,Albumin % Change,,4.5%
same,Alkaline Phosphatase % Change,,14.5%
same,Aspartate Aminotransferase % Change,,−8.6%
same,Blood Urea Nitrogen % Change,,−4.3%
same,CO2 % Change,,12.1%
same,Chloride % Change,,−0.4%
same,Cholesterol Ratio % Change,,−2.3%
same,Creatinine % Change,,−0.6%
same,Direct Bilirubin % Change,,6.0%
same,Gamma-glutamyl % Change,,5.7%
same,Globulin % Change,,6.0%
same,Glucose % Change,,7.8%
same,HDL % Change,,9.7%
same,Iron % Change,,−21.0%
same,Iron Binding Capacity % Change,,4.4%
same,Iron Saturation % Change,,−16.7%
same,LDL % Change,,5.9%
same,Lactate Dehydrogenase % Change,,−12.3%
same,Phosphorus % Change,,6.2%
same,Potassium % Change,,14.0%
same,Protein % Change,,5.1%
same,Sodium % Change,,1.2%
same,Total Bilirubin % Change,,2.6%
same,Total Cholesterol % Change,,7.4%
same,Triglycerides % Change,,7.8%
same,UIBC % Change,,7.9%
same,Uric Acid % Change,,1.9%
same,Aspartate Aminotransferase,Before,23.3 ± 0.9
same,Gamma-glutamyl,Before,13.3 ± 1.2
